According to patent publication US20260294922A1, “Inhibitors of JUN N-Terminal Kinases (JNK1, JNK2, and/or JNK3) and Mitogen-Activated Protein Kinases (MAPK8, MAPK9, and/or MAPK10) and Methods of Using Same” (Baylor College of Medicine, priority 2023, published 2026):
Entries after “also recorded” stand apart in the source; their conditions may differ.

Tests used:
[1] = tested on: primary human endometriotic stromal cells (patient 50); assay: IL-1β-stimulated pro-inflammatory gene expression in primary endometriotic stromal cells, patient 50; type: cell-based; settings: patient 50, relative to CDD-939
Text: FIGS. 14G-14H represent responses of primary human endometriotic stromal cells [from the endometrioma lesion] from endometriosis patient “50”.
FIGS. 15A-15H provide replicate results of the response of primary human endometriotic stromal cells (derived from the lesions) obtained from endometriosis patient “50”. In each example. […] In each example, CDD-2728 inhibited IL-1β-stimulated pro-inflammatory biomarker responses in primary endometriotic stromal cell cultures. Lower concentrations of JNK inhibitors were required to reduce the proinflammatory response of IL-1β in stromal cells than the concentration of JNK-I in 12Z epithelial cells.
Another target tissue of JNK inhibitors in the treatment of endometriosis are endometriotic stromal cells. To further exemplify the relevance of the discoveries of novel JNK inhibitors for endometriosis, stromal cells obtained from the endometriotic lesions of a patient with endometriosis have been cultured. The compliant identifier for this patient is Eosis50. These cells represent stromal cells from an ovarian endometrioma. Similar to culture system described elsewhere herein, the inflammatory environment of peritoneal endometriosis was simulated by the addition of IL-1β and increasing concentrations of either bentamapimod or CDD-2728 were added to these stromal cell cultures. […]

[2] = tested on: endometriotic lesions; assay: Mouse model of induced endometriosis; settings: 14 days of treatment
Description: FIG. 22A presents the design of an in vivo model in which JNK-I were evaluated for their ability to cause regression of endometriosis in mice. […] In this experimental design, endometriosis is induced by introducing isolated endometrial tissues from a donor mouse, and the prepared endometrial cells are introduced into the peritoneal cavity of recipient mice. Fourteen (14) days after induction of endometriosis, drug treatments are initiated and continued for 14 days. At the end of study (i.e., 28 days) the presence of endometriosis lesions are determined and various measurements performed.

[3] = tested on: immortalized human endometriotic epithelial cells (iHEEC); assay: Phosphorylation of JNK and Jun in iHEEC; type: cell-based
Text: FIG. 26A depicts the effects of CDD-2728 and CDD-3013 on phosphorylation of the JNK enzyme itself (i.e., representing MEK4 inhibition) and phosphorylation of pSer63 and pSer73 on the transcription factor Jun in immortalized human endometriotic epithelial cells (iHEEC). The HEEC cells are a well characterized cell line that are relevant for the evaluation of inflammatory endpoints and measures of epithelial-to-mesenchymal transitions (EMT). […] This is consistent with the potency relationships of CDD-2728 relative to bentamapimod observed in cytokine gene expression described above in iHEEC cells and primary human stromal endometriotic cells. […] SP600125 has been frequently described as a poorly-selective JNK-I but in this context provides additional confirmation of inhibition of the JNK target kinase for CDD-2728. […] This adds further support to the critical role of JNK-1 to the therapeutic effect of the JNK inhibitors of the disclosure.

[4] = tested on: pSer63 and pSer73 Jun; assay: In-cell Western blot of Jun phosphorylation; type: cell-based; settings: 0.1, 1 and 10 μM
Description: The top section of the in-cell Western is pSer73 and the lower section is pSer63. Experiments were performed in triplicate for 3 concentrations (0.1 μM, 1 μM, and 10 μM) FIGS. 27B-27C: graphical summary of the in-cell Western blot is provided for pSer73 (FIG. 27B) and pSer63 (FIG. 27C).

[5] = tested on: iHEEC; assay: Cell morphology, phospho-JNK and vimentin staining in iHEEC; type: cell-based, human
Text: FIGS. 28A-28C depict the impact of JNK inhibition on the cellular morphology and expression of surface marker, vimentin in iHEEC. […] Phospho-JNK staining in iHEEC can be either punctate staining in intracellular organelles or disperse staining through the cytoplasmic space of cells.

[6] = tested on: iHEEC; assay: Beta-catenin expression in IL-1β-treated iHEEC; type: cell-based, human; set-up: beta-catenin expression at cell contact points: dose or concentration left out as unconfirmed
Description: FIGS. 29A-29C depict the impact of JNK inhibition on the cellular expression of beta-catenin located at the cell surface and throughout the cytoplasm of iHEEC, wherein HEEC cells were treated with vehicle (FIG. 29A), IL-1β (FIG. 29B), or IL-1β and […] CDD-2728 (FIG. 29C). The increased cytoplasmic and plasma membrane expression of β-catenin following exposure to IL-1β supports the role of β-catenin in facilitating epithelial-to-mesenchymal transdifferentiation. The cellular morphology is consistent with that of columnar epithelial cells. iHEEC were treated with JNK-I or vehicle for 30 min before addition of IL-1β, followed by incubation of cells for another 15 minutes. Addition of IL-1β over this short time course caused a dramatic change in the expression of beta-catenin in iHEEC endometriotic epithelial cells, and a noticeable change in phospho-JNK throughout the cytoplasm, induced by IL-1β. Beta catenin expression at contact points between cells is increased by IL-1β, and inhibited by CDD-2728.

For `CN(C)C(=O)c1cc(NC(=O)c2cc3c(-c4cnc5[nH]ccc5c4)cccc3s2)ccc1O` [CDD-2728, N-(3-(dimethylcarbamoyl)-4-hydroxyphenyl)-4-(1H-pyrrolo[2,3-b]pyridin-5-yl)benzo[b]thiophene-2-carboxamide], the “inhibition of IL-6, IL-8, MMP-3 and PTGS2 gene expression” value [1] was “effective inhibitor of IL-6 gene expression; also recorded: more effective inhibitor of the biomarkers IL-8, MMP-3, and PTGS2 gene expression than CDD-939; also recorded: superior efficacy and potency”, the “impact on uterine, liver or kidney weight / other tissues” value [2] was “no impact” and the “phosphorylation of JNK1 (P46) and JNK2 (P54)” value [3] was “inhibits phosphorylation of JNK1 (P46) and JNK2 (P54)”. For the same molecule, the “phosphorylation of Jun at pSer63 and pSer73” value [3] was “more effectively than CDD-939”, the “Jun phosphorylation (pSer73, pSer63), relative to Tanzisertib” value [4] was “more effective inhibitors of Jun phosphorylation than Tanzisertib” and the phospho-JNK staining [5] was “reduce the intensity of phospho-JNK staining”. For the same molecule, the vimentin staining [5] was “not a dramatic change in the vimentin staining”, the “cell viability or cell density” value ([6]; short time course, iHEEC) was “no apparent changes in cell viability or cell density” and the “beta-catenin expression at cell contact points” value ([6]; with IL-1β) was “inhibited”.
